# Measurements published in ChEMBL document CHEMBL1137334 (J Med Chem, 2006).
# What was measured:
# [1] = AUC (0-24h) in mouse at 20 mg/kg, po; format: ADME, organism-based; design: time < 24 hr, dose 20 mg/kg, route oral; conditions: plasma
# A549 = assay: Inhibition of A549 cell migration by microdroplet migration assay; format: functional, cell-based; conditions: Homo sapiens
# [2] = biological target: Proto-oncogene tyrosine-protein kinase Src (Homo sapiens, UniProt P12931)
# Description: Inhibition of human c-Src in NIH3T3 cells
# [3] = biological target: Vascular endothelial growth factor receptor 2 (Homo sapiens, UniProt P35968); assay: Inhibition of KDR
# [4] = Percent of unbound ligand in rat plasma; format: ADME, organism-based
# [5] = Lipophilicity, log D at pH 7.4; format: physicochemical; conditions: buffer
# [6] = Aqueous solubility at pH 7.4; format: physicochemical
# [7] = Dissociation constant, pKa of the basic side chain of compound; format: physicochemical
# [8] = Bioavailability in female rat at 20 mg/kg, po and 2 mg/kg, iv; format: ADME, organism-based; conditions: in vivo
# Canis familiaris [9] = organism: Canis familiaris; assay: (§1) Volume of distribution in male dog; format: ADME, organism-based, Canis lupus familiaris; conditions: in vivo
# [10] = Clearance in female rat at 20 mg/kg, po and 2 mg/kg, iv; format: ADME, organism-based; conditions: in vivo
# Canis familiaris [11] = organism: Canis familiaris; assay: (§2) Half life in male dog; format: ADME, organism-based, Canis lupus familiaris; conditions: in vivo
# [12] = Bioavailability in male dog; format: ADME, organism-based, Canis lupus familiaris; conditions: in vivo
# [13] = Volume of distribution in female rat at 20 mg/kg, po and 2 mg/kg, iv; format: ADME, organism-based; conditions: in vivo, read-out: Vdss
# [14] = Volume of distribution in rat at 20 mg/kg, po and 2 mg/kg, iv; format: ADME, organism-based; conditions: in vivo, read-out: Vdss
# [15] = Clearance in rat at 20 mg/kg, po and 2 mg/kg, iv; format: ADME, organism-based; conditions: in vivo
# [16] = Clearance in male dog; format: ADME, organism-based, Canis lupus familiaris; conditions: in vivo
# NIH3T3 = assay: Antiproliferative activity against NIH 3T3 cells xenografted in athymic rat measured as inhibition of tumor volume at 10 mg/kg/day after 18 days; format: functional; conditions: NIH3T3, 432 h
# [17] = biological target: Vascular endothelial growth factor receptor 3 (Homo sapiens, UniProt P35916); assay: Inhibition of FLT4 by ELISA
# [18] = biological target: Fibroblast growth factor receptor 1 (Homo sapiens, UniProt P11362); assay: Inhibition of recombinant FGFR1 by ELISA
# [19] = as §1; format: ADME, organism-based, Canis lupus familiaris; conditions: male, in vivo, read-out: Vdss
# [20] = Inhibition of Chk; design: species or system Homo sapiens
# [21] = biological target: c-Jun N-terminal kinase, JNK (Homo sapiens, UniProt P45983+P53779+P45984); assay: Inhibition of JNK; format: protein assay
# [22] = biological target: cAMP-dependent protein kinase (PKA) (Homo sapiens, UniProt P22694+P17612+P22612); assay: Inhibition of PKA; format: protein assay
# [23] = as §2; format: ADME, organism-based, Canis lupus familiaris; conditions: male, in vivo
# [24] = Half life in rat at 20 mg/kg, po and 2 mg/kg, iv; format: ADME, organism-based; conditions: in vivo
# [25] = biological target: Cyclin-dependent kinase 2 (Homo sapiens, UniProt P24941); assay: Inhibition of CDK2 by SPA
# [26] = biological target: Tyrosine-protein kinase Yes (Homo sapiens, UniProt P07947); assay: Inhibition of recombinant C-YES by ELISA
# [27] = biological target: 3-phosphoinositide-dependent protein kinase 1 (Homo sapiens, UniProt O15530); assay: Inhibition of PDK
# [28] = biological target: Protein kinase C alpha type (Homo sapiens, UniProt P17252); assay: Inhibition of PKCalpha
# [29] = biological target: Tyrosine-protein kinase CSK (Homo sapiens, UniProt P41240); assay: Inhibition of recombinant CSK by ELISA
# [30] = Permeability from apical to basolateral side of NIH 3T3 cell; format: ADME, cell-based, NIH3T3; conditions: mouse, not told; read-out: permeability
# [31] = Bioavailability in rat at 20 mg/kg, po and 2 mg/kg, iv; format: ADME, organism-based; conditions: in vivo
# [32] = Percent of unbound ligand in dog plasma; format: ADME, organism-based, Canis lupus familiaris
# Aurora kinase B = Aurora kinase B (Homo sapiens, UniProt Q96GD4); assay: Inhibition of recombinant Aurora B by ELISA
# [33] = biological target: Vascular endothelial growth factor receptor 1 (Homo sapiens, UniProt P17948); assay: Inhibition of recombinant FLT1 by ELISA
# [34] = Inhibition of PI3K; design: species or system Homo sapiens
# [35] = biological target: Glycogen synthase kinase-3 beta (Homo sapiens, UniProt P49841); assay: Inhibition of GSK3-beta
# Sequence of Vascular endothelial growth factor receptor 2 (P35968 whole entry): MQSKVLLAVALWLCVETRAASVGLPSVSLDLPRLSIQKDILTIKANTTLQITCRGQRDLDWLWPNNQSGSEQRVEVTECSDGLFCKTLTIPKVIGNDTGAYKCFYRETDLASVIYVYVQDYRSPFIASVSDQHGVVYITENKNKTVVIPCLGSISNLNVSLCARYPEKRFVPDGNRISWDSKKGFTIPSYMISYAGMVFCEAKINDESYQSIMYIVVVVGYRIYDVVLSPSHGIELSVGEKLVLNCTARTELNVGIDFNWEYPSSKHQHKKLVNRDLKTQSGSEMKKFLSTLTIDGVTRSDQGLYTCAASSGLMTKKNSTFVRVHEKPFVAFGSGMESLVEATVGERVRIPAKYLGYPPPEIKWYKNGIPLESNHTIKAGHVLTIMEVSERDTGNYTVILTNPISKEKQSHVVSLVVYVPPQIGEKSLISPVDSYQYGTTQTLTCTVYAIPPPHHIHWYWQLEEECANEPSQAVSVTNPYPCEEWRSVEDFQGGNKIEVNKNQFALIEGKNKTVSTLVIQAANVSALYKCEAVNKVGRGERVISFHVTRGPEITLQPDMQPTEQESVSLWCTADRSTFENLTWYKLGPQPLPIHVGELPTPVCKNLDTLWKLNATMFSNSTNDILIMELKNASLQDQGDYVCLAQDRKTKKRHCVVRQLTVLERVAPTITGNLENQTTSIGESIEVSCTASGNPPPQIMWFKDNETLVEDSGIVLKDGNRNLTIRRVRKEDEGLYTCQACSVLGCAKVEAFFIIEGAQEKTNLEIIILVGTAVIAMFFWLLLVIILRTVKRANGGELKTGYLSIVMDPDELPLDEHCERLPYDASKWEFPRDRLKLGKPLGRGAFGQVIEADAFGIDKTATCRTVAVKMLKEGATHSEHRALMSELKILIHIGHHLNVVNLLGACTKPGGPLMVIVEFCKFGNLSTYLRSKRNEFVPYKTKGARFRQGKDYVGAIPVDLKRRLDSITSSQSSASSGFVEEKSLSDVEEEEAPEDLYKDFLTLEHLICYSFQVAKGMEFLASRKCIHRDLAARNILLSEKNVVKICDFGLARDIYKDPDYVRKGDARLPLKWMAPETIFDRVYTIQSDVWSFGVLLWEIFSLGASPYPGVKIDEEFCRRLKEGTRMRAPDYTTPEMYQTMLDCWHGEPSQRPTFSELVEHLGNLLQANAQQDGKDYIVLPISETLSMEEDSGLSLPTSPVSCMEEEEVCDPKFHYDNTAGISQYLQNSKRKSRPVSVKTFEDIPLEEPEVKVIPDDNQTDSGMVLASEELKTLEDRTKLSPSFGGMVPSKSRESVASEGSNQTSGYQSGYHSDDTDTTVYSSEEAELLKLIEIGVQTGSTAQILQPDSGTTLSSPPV
# Sequence of Proto-oncogene tyrosine-protein kinase Src (P12931 2-536 limits assumed): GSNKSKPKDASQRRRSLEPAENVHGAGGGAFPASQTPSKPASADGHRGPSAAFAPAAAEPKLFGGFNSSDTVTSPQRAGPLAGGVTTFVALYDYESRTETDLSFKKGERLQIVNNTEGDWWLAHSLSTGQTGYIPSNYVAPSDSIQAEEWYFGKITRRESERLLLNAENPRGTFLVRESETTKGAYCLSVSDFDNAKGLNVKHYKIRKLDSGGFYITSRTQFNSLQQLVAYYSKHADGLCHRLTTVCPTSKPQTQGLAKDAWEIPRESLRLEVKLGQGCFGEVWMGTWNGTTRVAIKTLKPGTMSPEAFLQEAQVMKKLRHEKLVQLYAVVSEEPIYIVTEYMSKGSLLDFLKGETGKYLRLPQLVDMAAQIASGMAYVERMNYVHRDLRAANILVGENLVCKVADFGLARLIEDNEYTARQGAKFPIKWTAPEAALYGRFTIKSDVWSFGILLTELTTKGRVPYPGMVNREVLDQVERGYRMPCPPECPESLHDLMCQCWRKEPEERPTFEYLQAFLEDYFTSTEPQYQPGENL
# Sequence of Fibroblast growth factor receptor 1 (P11362 whole entry): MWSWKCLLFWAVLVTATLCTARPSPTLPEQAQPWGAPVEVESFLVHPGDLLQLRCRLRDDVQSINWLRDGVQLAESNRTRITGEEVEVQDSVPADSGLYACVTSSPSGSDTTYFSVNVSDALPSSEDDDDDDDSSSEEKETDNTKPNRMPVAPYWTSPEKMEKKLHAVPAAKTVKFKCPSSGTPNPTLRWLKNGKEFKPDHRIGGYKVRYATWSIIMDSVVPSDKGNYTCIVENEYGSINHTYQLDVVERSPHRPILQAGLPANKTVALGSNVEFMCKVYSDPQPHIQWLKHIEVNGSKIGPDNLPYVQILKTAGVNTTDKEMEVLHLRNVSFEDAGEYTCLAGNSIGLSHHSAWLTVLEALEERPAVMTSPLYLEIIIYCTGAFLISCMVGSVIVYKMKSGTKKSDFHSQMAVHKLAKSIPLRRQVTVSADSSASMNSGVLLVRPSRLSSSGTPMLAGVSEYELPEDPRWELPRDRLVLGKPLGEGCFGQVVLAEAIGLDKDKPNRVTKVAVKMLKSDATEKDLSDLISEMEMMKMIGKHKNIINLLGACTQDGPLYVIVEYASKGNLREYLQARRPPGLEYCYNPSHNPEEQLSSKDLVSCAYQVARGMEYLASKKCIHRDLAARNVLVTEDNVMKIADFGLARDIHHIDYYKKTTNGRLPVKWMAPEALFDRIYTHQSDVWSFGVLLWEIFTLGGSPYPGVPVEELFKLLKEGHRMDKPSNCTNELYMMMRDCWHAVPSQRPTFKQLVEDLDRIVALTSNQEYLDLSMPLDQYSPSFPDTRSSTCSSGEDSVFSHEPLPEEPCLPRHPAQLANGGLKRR
# Sequence of Vascular endothelial growth factor receptor 3 (P35916 whole entry): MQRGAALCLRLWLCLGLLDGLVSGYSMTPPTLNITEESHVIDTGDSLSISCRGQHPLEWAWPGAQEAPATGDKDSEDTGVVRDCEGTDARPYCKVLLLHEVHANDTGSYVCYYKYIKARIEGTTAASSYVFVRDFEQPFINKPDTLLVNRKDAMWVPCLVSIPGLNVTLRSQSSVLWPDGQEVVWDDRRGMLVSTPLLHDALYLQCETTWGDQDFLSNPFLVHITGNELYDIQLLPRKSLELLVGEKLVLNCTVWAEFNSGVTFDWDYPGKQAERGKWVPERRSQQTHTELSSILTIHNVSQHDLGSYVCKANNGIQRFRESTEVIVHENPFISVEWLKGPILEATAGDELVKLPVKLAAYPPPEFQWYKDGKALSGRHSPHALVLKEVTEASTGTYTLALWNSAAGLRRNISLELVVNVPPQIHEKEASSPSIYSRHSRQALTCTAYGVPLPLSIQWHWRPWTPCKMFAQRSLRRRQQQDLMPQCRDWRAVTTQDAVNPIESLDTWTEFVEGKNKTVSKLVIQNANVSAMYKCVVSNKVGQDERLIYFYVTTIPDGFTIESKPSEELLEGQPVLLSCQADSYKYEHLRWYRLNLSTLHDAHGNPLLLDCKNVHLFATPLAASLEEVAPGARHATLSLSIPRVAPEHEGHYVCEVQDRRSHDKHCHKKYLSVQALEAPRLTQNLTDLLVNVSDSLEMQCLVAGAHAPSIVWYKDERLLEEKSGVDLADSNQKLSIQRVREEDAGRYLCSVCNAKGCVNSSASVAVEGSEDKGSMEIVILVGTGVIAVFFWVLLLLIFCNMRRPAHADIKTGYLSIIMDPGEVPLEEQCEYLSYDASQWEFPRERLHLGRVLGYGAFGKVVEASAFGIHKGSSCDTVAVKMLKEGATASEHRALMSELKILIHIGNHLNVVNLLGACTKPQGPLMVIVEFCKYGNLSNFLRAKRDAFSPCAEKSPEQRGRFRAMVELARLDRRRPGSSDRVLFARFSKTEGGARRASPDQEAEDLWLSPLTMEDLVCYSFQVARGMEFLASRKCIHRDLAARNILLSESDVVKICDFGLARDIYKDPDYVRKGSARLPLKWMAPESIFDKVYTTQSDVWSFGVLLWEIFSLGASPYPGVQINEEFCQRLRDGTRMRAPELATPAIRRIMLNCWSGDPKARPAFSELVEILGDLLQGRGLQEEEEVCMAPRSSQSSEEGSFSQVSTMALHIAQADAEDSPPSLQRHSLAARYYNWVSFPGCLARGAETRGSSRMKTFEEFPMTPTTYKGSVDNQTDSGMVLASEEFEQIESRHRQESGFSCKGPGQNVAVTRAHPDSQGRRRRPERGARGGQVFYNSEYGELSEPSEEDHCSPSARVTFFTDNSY
# Sequence of Aurora kinase B (Q96GD4 whole entry): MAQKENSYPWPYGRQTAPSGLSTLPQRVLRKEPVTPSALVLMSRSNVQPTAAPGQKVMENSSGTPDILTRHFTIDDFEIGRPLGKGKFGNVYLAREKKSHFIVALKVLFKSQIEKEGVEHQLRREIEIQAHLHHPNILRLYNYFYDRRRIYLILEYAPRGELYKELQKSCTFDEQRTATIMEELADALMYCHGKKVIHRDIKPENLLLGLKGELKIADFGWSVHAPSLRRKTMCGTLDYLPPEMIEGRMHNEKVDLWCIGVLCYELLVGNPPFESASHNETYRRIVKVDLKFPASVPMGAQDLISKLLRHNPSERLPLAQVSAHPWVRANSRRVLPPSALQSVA
compound,measurement,setting,value
COc1cc2c(Nc3c(Cl)ccc4c3OCO4)ncnc2cc1OCC1CCN(C)CC1,AUC(0-t) at 24 h,[1],38000 ng·h/mL
COc1ccc(Cl)c(Nc2ncnc3cc(OCCCN4CCOCC4)cc(OC4CCOCC4)c23)c1,IC50,A549,80 nM
same,IC50,[2],20 nM
CC(C)COc1cc(OC2CCN(C)CC2)c2c(Nc3c(Cl)ccc4c3OCO4)ncnc2c1,AUC(0-t) at 24 h,[1],600 ng·h/mL
same,IC50,A549,200 nM
same,IC50,[2],7 nM
same,IC50,[3],> 10000 nM
CC(C)Oc1cc(OCCCN2CCCC2)cc2ncnc(Nc3c(Cl)ccc4c3OCO4)c12,IC50,A549,150 nM
same,IC50,[2],< 4 nM
same,IC50,[3],1200 nM
COc1cc(OC2CCN(C)CC2)c2c(Nc3c(Cl)ccc4c3OCO4)ncnc2c1,fraction unbound,[4],0.25
same,logD,[5],2.9
same,AUC(0-t) at 24 h,[1],50 ng·h/mL
same,IC50,A549,150 nM
same,IC50,[2],10 nM
same,IC50,[3],21500 nM
same,solubility,[6],> 1000 µM
same,pKa,[7],8.2
c1cc(Nc2ncnc3cc(OCCCN4CCCC4)cc(OC4CCOCC4)c23)c2c(c1)OCO2,IC50,[2],40 nM
same,IC50,[3],100 nM
CN1CCN(CCOc2cc(OC3CCOCC3)c3c(Nc4c(Cl)ccc5c4OCCO5)ncnc3c2)CC1,IC50,[2],65 nM
Clc1ccc2c(c1Nc1ncnc3cc(OCCN4CCCC4)cc(OC4CCOCC4)c13)OCCO2,IC50,[2],110 nM
Clc1ccc2c(c1Nc1ncnc3cccc(Oc4ccncc4)c13)OCO2,IC50,A549,500 nM
same,IC50,[2],55 nM
same,IC50,[3],> 33000 nM
CN1CCC(COc2cc(OC3CCOCC3)c3c(Nc4c(Cl)ccc5c4OCO5)ncnc3c2)CC1,bioavailability,[8],93%
same,Vdss,Canis familiaris [9],38 L/kg
same,clearance,[10],132 mL/min/kg
same,T1/2,Canis familiaris [11],22 h
same,AUC(0-t) at 24 h,[1],31000 ng·h/mL
same,IC50,A549,300 nM
same,IC50,[2],6 nM
same,bioavailability,[12],57%
same,IC50,[3],2000 nM
same,Vd,[13],23.4 L/kg
COc1cc(OCCCN2CCCC2)cc2ncnc(Nc3c(Cl)ccc4c3OCO4)c12,IC50,[2],15 nM
COc1ccc(Cl)c(Nc2ncnc3cc(OC)c(OC)cc23)c1,IC50,[2],250 nM
CN1CCN(CCCOc2cc(OC3CCOCC3)c3c(Nc4c(Cl)ccc5c4OCO5)ncnc3c2)CC1,IC50,A549,200 nM
same,IC50,[2],< 4 nM
same,IC50,[3],1000 nM
COc1ccc(Cl)c(Nc2ncnc3cc(OC)cc(OC)c23)c1,IC50,[2],3700 nM
Clc1ccc2c(c1Nc1ncnc3cc(OCCCN4CCCC4)cc(OC4CCOCC4)c13)OCO2,Vd,[14],15 L/kg
same,clearance,[15],48.3 mL/min/kg
same,clearance,[16],15 mL/min/kg
same,inhibition in vivo at 10 mg/kg/day,NIH3T3,90%
same,IC50,[17],> 10000 nM
same,fraction unbound,[4],0.16
same,IC50,[18],37000 nM
same,logD,[5],2.3
same,Vd,[19],38 L/kg
same,IC50,[20],> 10000 nM
same,IC50,[21],> 10000 nM
same,IC50,[22],> 10000 nM
same,half-life,[23],29 h
same,half-life,[24],3.5 h
same,IC50,[25],> 10000 nM
same,AUC(0-t) at 24 h,[1],13000 ng·h/mL
same,IC50,A549,150 nM
same,IC50,[26],3 nM
same,IC50,[27],> 10000 nM
same,IC50,[2],< 4 nM
same,IC50,[28],> 10000 nM
same,IC50,[29],270 nM
same,bioavailability,[12],85%
same,IC50,[3],2500 nM
same,Papp A→B,[30],> 1 ×10⁻⁶ cm/s
same,bioavailability,[31],60%
same,fraction unbound,[32],0.17
same,IC50,Aurora kinase B,8900 nM
same,IC50,[33],> 33000 nM
same,solubility,[6],1000 µM
same,IC50,[34],> 10000 nM
same,IC50,[35],> 10000 nM
same,pKa,[7],9.5
COc1cc(Oc2ccncc2)c2c(Nc3c(Cl)ccc4c3OCO4)ncnc2c1,AUC(0-t) at 24 h,[1],100 ng·h/mL
same,IC50,A549,150 nM
same,IC50,[2],9.5 nM
same,IC50,[3],21500 nM
Clc1ccc2c(c1Nc1ncnc3cc(OCCc4ccncc4)cc(OC4CCOCC4)c13)OCO2,fraction unbound,[4],0.017
same,logD,[5],> 3.1
same,AUC(0-t) at 24 h,[1],6000 ng·h/mL
same,IC50,A549,70 nM
same,IC50,[2],3 nM
same,IC50,[3],> 5000 nM
same,solubility,[6],1.5 µM
same,pKa,[7],6.4
CN1CCC(Oc2cc(OCCF)cc3ncnc(Nc4c(Cl)ccc5c4OCO5)c23)CC1,IC50,A549,90 nM
same,IC50,[2],4 nM
same,IC50,[3],> 20000 nM
COc1ccc(Cl)c(Nc2ncnc3cc(OCCCN4CCOCC4)cc(OC4CCCCC4)c23)c1,IC50,A549,2500 nM
same,IC50,[2],20 nM
same,IC50,[3],5500 nM
COc1ccc(Cl)c(Nc2ncnc3ccc(OC)c(OC4CCN(C)CC4)c23)c1,IC50,[2],540 nM
COc1ccc(Cl)c(Nc2ncnc3cc(OCCCN4CCN(C)CC4)cc(OC4CCOCC4)c23)c1,IC50,A549,300 nM
same,IC50,[2],< 4 nM
same,IC50,[3],40 nM
COc1cc(OC2CCN(C)CC2)c2c(Nc3cccc4c3OCCO4)ncnc2c1,IC50,[2],570 nM
same,IC50,[3],500 nM
CC(C)Oc1cc(OC2CCN(C)CC2)c2c(Nc3c(Cl)ccc4c3OCO4)ncnc2c1,IC50,[2],100 nM
c1cc(Nc2ncnc3cc(OCCN4CCCC4)cc(OC4CCOCC4)c23)c2c(c1)OCCO2,IC50,[2],85 nM
same,IC50,[3],50 nM
COc1ccc(Cl)c(Nc2ncnc3cc(OC)cc(OCCCN4CCOCC4)c23)c1,IC50,[2],230 nM
COc1ccc(Cl)c(Nc2ncnc3cc(OCCCN4CCOCC4)cc(OC(C)C)c23)c1,IC50,A549,400 nM
CN1CCC(Oc2cccc3ncnc(Nc4c(Cl)ccc5c4OCO5)c23)CC1,IC50,A549,700 nM
same,IC50,[2],100 nM
COc1cc(OC2CCN(C)CC2)c2c(Nc3cccc4c3OCO4)ncnc2c1,IC50,[2],150 nM
same,IC50,[3],2500 nM
COc1ccc(Cl)c(Nc2ncnc3cc(OC)cc(OC4CCN(C)CC4)c23)c1,IC50,A549,300 nM
same,IC50,[2],30 nM
same,IC50,[3],> 2000 nM
COc1ccc(Cl)c(Nc2ncnc3cccc(OC4CCOCC4)c23)c1,IC50,[2],400 nM
Clc1ccc2c(c1Nc1ncnc3cc(OCCN4CCCC4)cc(OC4CCOCC4)c13)OCO2,AUC(0-t) at 24 h,[1],9000 ng·h/mL
same,IC50,A549,300 nM
same,IC50,[2],6 nM
same,IC50,[3],> 10000 nM
COc1cc2c(Nc3c(Cl)ccc4c3OCO4)ncnc2cc1OCCCN1CCCC1,AUC(0-t) at 24 h,[1],13000 ng·h/mL
same,IC50,[2],5 nM
c1cc(Nc2ncnc3cc(OCCN4CCCC4)cc(OC4CCOCC4)c23)c2c(c1)OCO2,IC50,[2],80 nM
same,IC50,[3],650 nM
COc1ccc(Cl)c(Nc2ncnc3cccc(OC4CCN(C)CC4)c23)c1,IC50,[2],300 nM
same,IC50,[3],> 5000 nM
CC(=O)N1CCN(CCOc2cc(OC(C)C)c3c(Nc4c(F)ccc5c4OCO5)ncnc3c2)CC1,IC50,A549,290 nM
same,IC50,[2],20 nM
same,IC50,[3],6500 nM
Clc1ccc2c(c1Nc1ncnc3cc(OCCN4CCCC4)cc(N4CCOCC4)c13)OCO2,IC50,A549,1200 nM
same,IC50,[2],75 nM
same,IC50,[3],5000 nM
COc1ccc(Cl)c(Nc2ncnc3ccc(OCCCN4CCN(C)CC4)c(OC4CCOCC4)c23)c1,IC50,[2],600 nM
CC(C)Oc1cc(OCCN2CCOCC2)cc2ncnc(Nc3c(Cl)ccc4c3OCO4)c12,fraction unbound,[4],0.025
same,logD,[5],3.7
same,IC50,A549,100 nM
same,IC50,[2],5 nM
same,IC50,[3],10000 nM
same,solubility,[6],2 µM
same,pKa,[7],6.5
CN1CCC(COc2cccc3ncnc(Nc4c(Cl)ccc5c4OCO5)c23)CC1,IC50,[2],500 nM
COc1ccc(Cl)c(Nc2ncnc3cc(OCCCN4CCOCC4)cc(OC4CCOC4)c23)c1 (racemic),IC50,[2],< 4 nM
same,IC50,[3],50 nM
COc1ccc(Cl)c(Nc2ncnc3cc(OCC4CCN(C)CC4)c(OC)cc23)c1 [AZM-475271],fraction unbound,[4],0.075
same,logD,[5],2
same,Vdss,Canis familiaris [9],43 L/kg
same,T1/2,Canis familiaris [11],4.2 h
same,IC50,A549,480 nM
same,bioavailability,[12],42%
same,solubility,[6],324 µM
same,pKa,[7],9
